From US20240108610A1, “RECTAL ADMINISTRATION OF ROFLUMILAST FOR THE TREATMENT OF CROHN'S DISEASE” (King Abdulaziz University, priority 2022, published 2024)
Marks after values point to notes of the source that are not given here.

How the values were obtained:
[1] = oral; cited from earlier work
[2] = oral; cited from earlier work; remark: listed apart in the source
[3] = tested on: TNBS-induced reduction in colon length; settings: 1 and 5 mg-kg−1·day−1; another study (13); cited from earlier work
[4] = tested on: dextran sulphate sodium (DSS)-induced colitis; settings: oral, 1 or 5 mg·kg−1·day−1, mice; cited from earlier work
[5] = tested on: ovalbumin-induced asthmatic mice; settings: inhaled; cited from earlier work
[6] = tested on: DSS-induced ulcerative colitis; settings: 5 mg/kg, male Wistar rats, cited from earlier work
MPO = test: Colonic MPO in colonic tissue homogenates, TNBS-induced colitis; assay type: in vivo, rat; settings: means±SE, n = 8
Description: Chronic colitis was induced by weekly rectal injections of increasing doses of TNBS over 6 weeks (15, 30, 45, 60, 60, and 60 mg from day 0 to day 35), as previously described (4,12). Briefly, after food deprivation for 24 h, rats were anesthetized with an intraperitoneal injection of 1% isoflurane. TNBS was dissolved in ethanol (50%) and instilled into the colon using a cannula (0.25 mL), and then the rats were held upside down for 3 min to prevent escape of the intracolonic TNBS. Roflumilast was dissolved in dimethyl sulfoxide and diluted in 0.5% carboxymethyl cellulose sodium to a final concentration of 5.0 mg·kg^−1·day^−1 as previously described (13). Five groups of rats (n=8) were established: normal control (NC group), TNBS-treated (TNBS group, positive control), and three TNBS-treated groups that received oral sulfasalazine (SS group, 500 mg/kg) (14), oral roflumilast (by gastric gavage, OR group, 5 mg/kg), or rectal roflumilast (RR group, 5 mg/kg). Treatments were administered once daily in a volume of 200 μL for 15 days starting 48 h after the induction of colitis (from day 37) (15), and the control rats received equal amounts of vehicle. At the end of the treatment period, the rats were evaluated with the colitis activity score. […] At the end of the 15-day treatment period, the rats were sacrificed by cervical dislocation, and the colon was isolated, cleaned of feces, and measured for weight and length. Colonic myeloperoxidase (MPO) activity and glutathione (GSH) and malonaldehyde (MDA) levels were measured. […] The levels of MPO (a marker of neutrophil activity), GSH (one of the most important cellular antioxidants), and MDA (an indicator of lipid peroxidation) in colonic tissue homogenates were measured using the commercially available kits as previously described: MPO ELISA kit (Innovative Research) (18), GSH colorimetric assay kit (Innovative Research) (19), and MDA ELISA kit (Neobio Lab Comp., USA) (20).

GSH = test: Colonic GSH in colonic tissue homogenates, TNBS-induced colitis; assay type: in vivo, rat; settings: oral, once daily for 15 days; SS 500 mg/kg, OR 5 mg/kg; means±SE, n = 8
Description: Chronic colitis was induced by weekly rectal injections of increasing doses of TNBS over 6 weeks (15, 30, 45, 60, 60, and 60 mg from day 0 to day 35), as previously described (4,12). Briefly, after food deprivation for 24 h, rats were anesthetized with an intraperitoneal injection of 1% isoflurane. TNBS was dissolved in ethanol (50%) and instilled into the colon using a cannula (0.25 mL), and then the rats were held upside down for 3 min to prevent escape of the intracolonic TNBS. Roflumilast was dissolved in dimethyl sulfoxide and diluted in 0.5% carboxymethyl cellulose sodium to a final concentration of 5.0 mg·kg^−1·day^−1 as previously described (13). Five groups of rats (n=8) were established: normal control (NC group), TNBS-treated (TNBS group, positive control), and three TNBS-treated groups that received oral sulfasalazine (SS group, 500 mg/kg) (14), oral roflumilast (by gastric gavage, OR group, 5 mg/kg), or rectal roflumilast (RR group, 5 mg/kg). […] At the end of the treatment period, the rats were evaluated with the colitis activity score. […] At the end of the 15-day treatment period, the rats were sacrificed by cervical dislocation, and the colon was isolated, cleaned of feces, and measured for weight and length. Colonic myeloperoxidase (MPO) activity and glutathione (GSH) and malonaldehyde (MDA) levels were measured. […]

[7] = oral, once daily for 15 days, SS 500 mg/kg, OR 5 mg/kg

## O=C(Nc1c(Cl)cncc1Cl)c1ccc(OC(F)F)c(OCC2CC2)c1 [roflumilast]
[1]
  bioavailability: ~80%
[2]
  side effects: weight loss, headache, nausea, emesis, and diarrhea
[3]
  TNBS-induced reduction in colon length: partially reverses
  elevated colonic concentration of TNF-α: decreases
[4]
  Colonic length: dose-dependently improved
  colonic TNF-α production: dose-dependently improved
  disease clinical score (weight loss, stool consistency, and hemorrhage): dose-dependently improved
  histological score: not improved
[5]
  inflammation and histopathological changes: substantially improved
  numbers of neutrophils, eosinophils, and macrophages in the bronchoalveolar lavage fluid: decreased
[6]; compared with the DSS group
  colon length: preserved
  histological scores: improved
  severity of colitis: diminished
  weight loss: decreased
[6]
  colon concentrations of TNF-α and NO, MPO activity, and inducible nitric oxide synthase gene expression: decreased
MPO; [7]
  colonic MPO activity: 23.89 ± 0.92^a, b, c μ/g
MPO; rectal, 5 mg/kg once daily for 15 days
  colonic MPO activity: 28.17 ± 1.00^a μ/g

## O=C(O)c1cc(/N=N/c2ccc(S(=O)(=O)Nc3ccccn3)cc2)ccc1O [sulfasalazine]
MPO; [7]
  colonic MPO activity: 18.38 ± 0.87^a μ/g
GSH
  colonic level of GSH: 14.73 ± 0.49^h, i mmol/mg
